The target in one test is Wild type FGFR2 (Homo sapiens (Human), UniProt P21802). Nature of the test: FGFR2 kinase assay (fluorescence-based microfluidic mobility shift assay). The test is classed as biochemical. The conditions noted are these: wild type FGFR2 0.06 nM, 100 μM ATP, 80 minutes at room temperature; class symbols.
Sequence of Wild type FGFR2 (P21802 22-821): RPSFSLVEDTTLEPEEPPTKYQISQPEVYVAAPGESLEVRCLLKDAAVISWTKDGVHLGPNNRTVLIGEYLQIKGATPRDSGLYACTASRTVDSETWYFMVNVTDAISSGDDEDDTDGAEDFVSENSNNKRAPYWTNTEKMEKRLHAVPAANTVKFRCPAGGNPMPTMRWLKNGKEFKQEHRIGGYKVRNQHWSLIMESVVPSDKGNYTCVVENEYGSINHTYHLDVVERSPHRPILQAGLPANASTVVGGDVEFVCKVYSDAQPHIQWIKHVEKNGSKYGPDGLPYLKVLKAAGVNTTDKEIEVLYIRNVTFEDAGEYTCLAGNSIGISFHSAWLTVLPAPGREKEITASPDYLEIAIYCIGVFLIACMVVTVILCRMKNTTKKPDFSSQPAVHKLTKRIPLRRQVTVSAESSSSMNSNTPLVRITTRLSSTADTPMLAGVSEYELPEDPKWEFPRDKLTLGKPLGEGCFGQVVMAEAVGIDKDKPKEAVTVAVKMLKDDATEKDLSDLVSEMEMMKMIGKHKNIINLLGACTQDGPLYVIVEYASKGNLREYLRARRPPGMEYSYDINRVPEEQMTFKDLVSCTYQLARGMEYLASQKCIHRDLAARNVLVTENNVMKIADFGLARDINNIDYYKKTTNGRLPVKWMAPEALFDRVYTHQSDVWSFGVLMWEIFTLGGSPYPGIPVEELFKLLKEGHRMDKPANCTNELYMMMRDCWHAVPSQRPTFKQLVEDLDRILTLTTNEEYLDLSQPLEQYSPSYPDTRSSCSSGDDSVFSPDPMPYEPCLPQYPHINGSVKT
`C=CC(=O)N1C[C@@H](n2nc(C#Cc3cc4ncn(C)c4cc3Cl)c(C(N)=O)c2NC)C[C@@H]1COC` [Example 88, 3-[2-(6-Chloro-1-methyl-1,3-benzodiazol-5-yl)ethynyl]-1-[(3S,5R)-5-(methoxymethyl)-1-(prop-2-enoyl)pyrrolidin-3-yl]-5-(methylamino)pyrazole-4-carboxamide]: the IC50 was ≤ 100 nM.

As for `C=CC(=O)N1C[C@@H](n2nc(C#Cc3cc4ncn(CC)c4cc3Cl)c(C(N)=O)c2NC)C[C@@H]1COC` [Example 89, 3-[2-(6-Chloro-1-ethyl-1,3-benzodiazol-5-yl)ethynyl]-1-[(3S,5R)-5-(methoxymethyl)-1-(prop-2-enoyl)pyrrolidin-3-yl]-5-(methylamino)pyrazole-4-carboxamide], the IC50 was ≤ 100 nM.

Turning to `C=CC(=O)N1C[C@@H](n2nc(C#Cc3cc4nc[nH]c4cc3F)c(C(N)=O)c2NC)C[C@@H]1COC` [Example 90, 3-[2-(6-Fluoro-1H-1,3-benzodiazol-5-yl)ethynyl]-1-[(3S,5R)-5-(methoxymethyl)-1-(prop-2-enoyl)pyrrolidin-3-yl]-5-(methylamino)pyrazole-4-carboxamide], the IC50 was ≤ 100 nM.

Take `C=CC(=O)N1C[C@@H](n2nc(C#Cc3cc4nc(C)[nH]c4cc3F)c(C(N)=O)c2NC)C[C@@H]1COC` [Example 91, 3-[2-(6-Fluoro-2-methyl-1H-1,3-benzodiazol-5-yl)ethynyl]-1-[(3S,5R)-5-(methoxymethyl)-1-(prop-2-enoyl)pyrrolidin-3-yl]-5-(methylamino)pyrazole-4-carboxamide]: the IC50 is ≤ 100 nM.

For the molecule `C=CC(=O)N1C[C@@H](n2nc(C#Cc3cc4nc[nH]c4cc3Cl)c(C(N)=O)c2NC)C[C@@H]1COC` [Example 92, 3-[2-(6-Chloro-1H-1,3-benzodiazol-5-yl)ethynyl]-1-[(3S,5R)-5-(methoxymethyl)-1-(prop-2-enoyl)pyrrolidin-3-yl]-5-(methylamino)pyrazole-4-carboxamide], the IC50 was ≤ 100 nM.

Regarding `C=CC(=O)N1C[C@@H](n2nc(C#Cc3cc4c(cc3Cl)ncn4C(F)F)c(C(N)=O)c2NC)C[C@@H]1COC` [Example 93, 3-[2-[6-Chloro-3-(difluoromethyl)-1,3-benzodiazol-5-yl]ethynyl]-1-[(3S,5R)-5-(methoxymethyl)-1-(prop-2-enoyl)pyrrolidin-3-yl]-5-(methylamino)pyrazole-4-carboxamide], the IC50 was ≤ 100 nM.

`C=CC(=O)N1C[C@@H](n2nc(C#Cc3cc4ncn(C(F)F)c4cc3Cl)c(C(N)=O)c2NC)C[C@@H]1COC` [Example 94, 3-[2-[6-Chloro-1-(difluoromethyl)-1,3-benzodiazol-5-yl]ethynyl]-1-[(3S,5R)-5-(methoxymethyl)-1-(prop-2-enoyl)pyrrolidin-3-yl]-5-(methylamino)pyrazole-4-carboxamide]: the concentration for half-maximal inhibition (IC50) was ≤ 100 nM.

For `C=CC(=O)N1C[C@@H](n2nc(C#Cc3cc4c(cc3Cl)nc(C)n4C(F)F)c(C(N)=O)c2NC)C[C@@H]1COC` [Example 95, 3-[2-[6-Chloro-3-(difluoromethyl)-2-methyl-1,3-benzodiazol-5-yl]ethynyl]-1-[(3S,5R)-5-(methoxymethyl)-1-(prop-2-enoyl)pyrrolidin-3-yl]-5-(methylamino)pyrazole-4-carboxamide], the IC50 was in the range of 100 to 1000 nM.

As for `C=CC(=O)N1C[C@@H](n2nc(C#Cc3cc4nc(C)n(C(F)F)c4cc3Cl)c(C(N)=O)c2NC)C[C@@H]1COC` [Example 96, 3-[2-[6-Chloro-1-(difluoromethyl)-2-methyl-1,3-benzodiazol-5-yl]ethynyl]-1-[(3S,5R)-5-(methoxymethyl)-1-(prop-2-enoyl)pyrrolidin-3-yl]-5-(methylamino)pyrazole-4-carboxamide], the IC50 was ≤ 100 nM.

In the case of `C=CC(=O)N1C[C@@H](n2nc(C#Cc3c(F)cc4c(nnn4C)c3F)c(C(N)=O)c2NC)C[C@@H]1COC` [Example 97, 3-[2-(4,6-Difluoro-1-methyl-1,2,3-benzotriazol-5-yl)ethynyl]-1-[(3S,5R)-5-(methoxymethyl)-1-(prop-2-enoyl)pyrrolidin-3-yl]-5-(methylamino)pyrazole-4-carboxamide], the IC50 is ≤ 100 nM.

With `C=CC(=O)N1C[C@@H](n2nc(C#Cc3cc4nc(C)[nH]c4cc3Cl)c(C(N)=O)c2NC)C[C@@H]1COC` [Example 98, 3-[2-(6-Chloro-2-methyl-1R-1,3-benzodiazol-5-yl)ethynyl]-1-[(3S,5R)-5-(methoxymethyl)-1-(prop-2-enoyl)pyrrolidin-3-yl]-5-(methylamino)pyrazole-4-carboxamid], the IC50 is ≤ 100 nM.

As to `C=CC(=O)N1C[C@@H](n2nc(C#Cc3c(Cl)cc4c(ncn4CC)c3F)c(C(N)=O)c2NC)C[C@@H]1COC` [Example 99, 3-[2-(6-Chloro-1-ethyl-4-fluoro-1,3-benzodiazol-5-yl)ethynyl]-1-[(3S,5R)-5-(methoxymethyl)-1-(prop-2-enoyl)pyrrolidin-3-yl]-5-(methylamino)pyrazole-4-carboxamide], the IC50 is ≤ 100 nM.

Consider `C=CC(=O)N1C[C@@H](n2nc(C#Cc3c(Cl)cc4c(ncn4C)c3F)c(C(N)=O)c2NC)C[C@@H]1COC` [Example 100, 3-[2-(6-Chloro-4-fluoro-1-methyl-1,3-benzodiazol-5-yl)ethynyl]-1-[(3S,5R)-5-(methoxymethyl)-1-(prop-2-enoyl)pyrrolidin-3-yl]-5-(methylamino)pyrazole-4-carboxamide], for which the IC50 was ≤ 100 nM.

Regarding `C=CC(=O)N1C[C@@H](n2nc(C#Cc3cc4ncn(C)c4c(F)c3F)c(C(N)=O)c2NC)C[C@@H]1COC` [Example 101, 3-[2-(6,7-Difluoro-1-methyl-1,3-benzodiazol-5-yl)ethynyl]-1-[(3S,5R)-5-(methoxymethyl)-1-(prop-2-enoyl)pyrrolidin-3-yl]-5-(methylamino)pyrazole-4-carboxamide], the IC50 is ≤ 100 nM.

As to `C=CC(=O)N1C[C@@H](n2nc(C#Cc3nc4ccccc4s3)c(C(N)=O)c2NC)C[C@@H]1COC` [Example 102, 3-[2-(1,3-Benzothiazol-2-yl)ethynyl]-1-[(3S,5R)-5-(methoxymethyl)-1-(prop-2-enoyl)pyrrolidin-3-yl]-5-(methylamino)pyrazole-4-carboxamide], the IC50 was ≤ 100 nM.

Turning to `C=CC(=O)N1C[C@@H](n2nc(C#Cc3ccc4scnc4c3)c(C(N)=O)c2NC)C[C@@H]1COC` [Example 103, 3-[2-(1,3-Benzothiazol-5-yl)ethynyl]-1-[(3S,5R)-5-(methoxymethyl)-1-(prop-2-enoyl)pyrrolidin-3-yl]-5-(methylamino)pyrazole-4-carboxamide], the IC50 is ≤ 100 nM.

The same test, now with this note: wild type FGFR2 0.06 nM, 100 μM ATP, 80 minutes at room temperature; given as numeric bound.
Consider `C=CC(=O)N1C[C@@H](n2nc(C#Cc3cn4ccccc4n3)c(C(N)=O)c2NC)C[C@@H]1COC` [Example 104, 3-(2-[Imidazo[1,2-a]pyridin-2-yl]ethynyl)-1-[(3S,5R)-5-(methoxymethyl)-1-(prop-2-enoyl)pyrrolidin-3-yl]-5-(methylamino)pyrazole-4-carboxamide], for which the IC50 is > 500 nM.

`C=CC(=O)N1C[C@@H](n2nc(C#Cc3ccc4ncnn4c3)c(C(N)=O)c2NC)C[C@@H]1COC` [Example 106, 1-[(3S,5R)-5-(Methoxymethyl)-1-(Prop-2-enoyl)pyrrolidin-3-yl]-5-(methylamino)-3-(2-[[1,2,4]triazolo[1,5-a]pyridin-6-yl]ethynyl)pyrazole-4-carboxamide]: the IC50 was > 500 nM.

For the origin of these results see US11345681B1, “Inhibitors of fibroblast growth factor receptor kinases” (Kinnate Biopharma Inc., priority 2020, dated 2022).
